Where two headings read alike, the source gives them in different places.
Experiments:
[1] = test system: β-lactamase expressing K. pneumoniae; assay: broth microdilution MIC of cefiderocol +/- Compound 1, K. pneumoniae strains; type: cell-based; details: Klebsiella pneumoniae
[2] = test system: β-lactamase expressing E. cloacae; assay: broth microdilution MIC of cefiderocol +/- Compound 1, E. cloacae strains; type: cell-based; details: Enterobacter cloacae
[3] = test system: MDR-Acinetobacter; assay: broth microdilution MIC of cefiderocol +/- Compound 1 in IDM, panel of 40 MDR Acinetobacter; type: cell-based, A. baumannii; details: for MIC: read-out: Minimum inhibitory concentration (MIC)
[4] = test system: metallo- and serine-β-lactamase expressing CRE; assay: checkerboard assay of cefiderocol and Compound 1 in IDM, 22 CRE isolates; type: cell-based, Enterobacteriaceae; details: Compound 1 0 μg/mL
[5] = Acinetobacter baumannii, panel of 40 MDR Acinetobacter, IDM

CC(C)(O/N=C(\C(=O)N[C@@H]1C(=O)N2C(C(=O)[O-])=C(C[N+]3(CCNC(=O)c4ccc(O)c(O)c4Cl)CCCC3)CS[C@H]12)c1csc(N)n1)C(=O)O [FDC, cefiderocol]
32 µg/mL: MIC ([1]; read-out: Minimum inhibitory concentration (MIC), K. pneummoniae CDC-153 (NDM, OXA-232), MHBII) | MIC ([1]; read-out: Minimum inhibitory concentration (MIC), K. pneumoniae 847375 (SHV-12, KPC-2), MHBII) | MIC ([1]; read-out: Minimum inhibitory concentration (MIC), K. pneumoniae KIRK (OXA-162), MHBII) | MIC ([1]; read-out: Minimum inhibitory concentration (MIC), K. pneumoniae OMAN 13 (NDM-1), MHBII)
95%: % of strains inhibited ([4]; cefiderocol 32 μg/mL)
5%: % of strains inhibited ([4]; cefiderocol 0.06 μg/mL) | % of strains inhibited ([4]; cefiderocol 0.125 μg/mL) | % of strains inhibited ([4]; cefiderocol 0.25 μg/mL)
0.25 µg/mL: MIC ([1]; read-out: Minimum inhibitory concentration (MIC), K. pneummoniae CDC-140 (OXA-181), IDM) | MIC ([1]; read-out: Minimum inhibitory concentration (MIC), K. pneumoniae KIRK (OXA-162), IDM) | MIC ([3]; Acinetobacter baumannii, A. baumannii 157070, IDM) | MIC ([3]; Acinetobacter baumannii, A. baumannii 157072, IDM) | MIC ([3]; Acinetobacter baumannii, A. baumannii 161754, IDM) | MIC ([3]; Acinetobacter baumannii, A. baumannii 164899, IDM) | MIC ([3]; Acinetobacter baumannii, A. baumannii CDC-0035, IDM) | MIC ([3]; Acinetobacter baumannii, A. baumannii CDC-0070, IDM) | MIC ([3]; Acinetobacter baumannii, A. baumannii GM237, IDM) | MIC ([3]; Acinetobacter baumannii, A. baumannii GM238, IDM) | MIC ([3]; Acinetobacter baumannii, ATCC17978, A. baumannii ATCC 17978, IDM) | MIC50 [3, 5]
16 µg/mL: MIC ([1]; read-out: Minimum inhibitory concentration (MIC), K. pneumoniae 847204 (KPC-2), MHBII) | MIC ([1]; read-out: Minimum inhibitory concentration (MIC), K. pneumoniae KPC261 (KPC-2), MHBII) | MIC ([1]; read-out: Minimum inhibitory concentration (MIC), K. pneumoniae SI-117 (VIM-1), MHBII) | MIC ([2]; read-out: Minimum inhibitory concentration (MIC), E. cloacae CDC-161 (IMP), MHBII)
8 µg/mL: MIC ([1]; read-out: Minimum inhibitory concentration (MIC), K. pneummoniae CDC-41 (NDM), IDM) | MIC ([1]; read-out: Minimum inhibitory concentration (MIC), K. pneumoniae 847747 (CTX-M-2, KPC), MHBII) | MIC ([1]; read-out: Minimum inhibitory concentration (MIC), K. pneumoniae KPC157 (KPC-3), MHBII) | MIC ([3]; Acinetobacter baumannii, A. baumannii CDC-0052, IDM)
8.1 µg/mL: MIC ([3]; Acinetobacter baumannii, A. baumannii CDC-0088, IDM)
0.125 µg/mL: MIC ([1]; read-out: Minimum inhibitory concentration (MIC), K. pneummoniae CDC-34 (IMP), IDM) | MIC ([1]; read-out: Minimum inhibitory concentration (MIC), K. pneumoniae 847747 (CTX-M-2, KPC), IDM) | Minimum inhibitory concentration (MIC) ([3]; A. baumannii 157076, IDM) | Minimum inhibitory concentration (MIC) ([3]; A. baumannii 157078, IDM) | Minimum inhibitory concentration (MIC) ([3]; A. baumannii 161761, IDM) | Minimum inhibitory concentration (MIC) ([3]; A. baumannii 163264, IDM) | Minimum inhibitory concentration (MIC) ([3]; A. baumannii 164890, IDM) | Minimum inhibitory concentration (MIC) ([3]; A. baumannii 164891, IDM) | Minimum inhibitory concentration (MIC) ([3]; A. baumannii 165039, IDM) | Minimum inhibitory concentration (MIC) ([3]; A. baumannii CDC-0056, IDM) | MIC ([3]; Acinetobacter baumannii)
15%: % of strains inhibited ([4]; cefiderocol 0.5 μg/mL)
1 µg/mL: MIC ([1]; read-out: Minimum inhibitory concentration (MIC), K. pneummoniae CDC-40 (VIM), IDM) | MIC ([2]; read-out: Minimum inhibitory concentration (MIC), E. cloacae CDC-93 (KPC), MHBII) | MIC ([2]; read-out: Minimum inhibitory concentration (MIC), E. cloacae CDC-161 (IMP), IDM) | MIC ([2]; read-out: Minimum inhibitory concentration (MIC), E. cloacae Entb239 (p99 AmpC, KPC-3, CTXM-15, GES-1, IMI-1), MHBII) | MIC ([3]; Acinetobacter baumannii, A. baumannii CDC-0036, IDM) | MIC ([3]; Acinetobacter baumannii, A. baumannii CDC-0083, IDM) | MIC ([3]; Acinetobacter baumannii, A. baumannii CDC-0102, IDM) | MIC ([3]; Acinetobacter baumannii, A. baumannii GM235, IDM) | MIC ([3]; Acinetobacter baumannii, NCTC13301, A. baumannii NCTC 13301, IDM)
75%: % of strains inhibited ([4]; cefiderocol 4 μg/mL)
0.5 µg/mL: MIC ([1]; read-out: Minimum inhibitory concentration (MIC), K. pneummoniae CDC-140 (OXA-181), MHBII) | MIC ([1]; read-out: Minimum inhibitory concentration (MIC), K. pneumoniae 847204 (KPC-2), IDM) | MIC ([1]; read-out: Minimum inhibitory concentration (MIC), K. pneumoniae KPC157 (KPC-3), IDM) | MIC ([1]; read-out: Minimum inhibitory concentration (MIC), K. pneumoniae KPC261 (KPC-2), IDM) | MIC ([2]; read-out: Minimum inhibitory concentration (MIC), E. cloacae CDC-93 (KPC), IDM) | MIC ([3]; Acinetobacter baumannii, A. baumannii 0045, IDM) | MIC ([3]; Acinetobacter baumannii, A. baumannii 157079, IDM) | MIC ([3]; Acinetobacter baumannii, A. baumannii 161763, IDM) | MIC ([3]; Acinetobacter baumannii, A. baumannii CDC-0033, IDM) | MIC ([3]; Acinetobacter baumannii, A. baumannii CDC-0063, IDM) | MIC ([3]; Acinetobacter baumannii, A. baumannii CDC-0078, IDM)
4 µg/mL: MIC ([1]; read-out: Minimum inhibitory concentration (MIC), K. pneumoniae SI-117 (VIM-1), IDM) | MIC ([3]; Acinetobacter baumannii, A. baumannii 157865, IDM) | MIC ([3]; Acinetobacter baumannii, A. baumannii CDC-0037, IDM) | MIC ([3]; Acinetobacter baumannii, A. baumannii SI-141, IDM) | MIC90 [3, 5]
20%: % of strains inhibited ([4]; cefiderocol 1 μg/mL)
0.03 µg/mL: MIC ([3]; Acinetobacter baumannii, A. baumannii 157071, IDM) | MIC ([3]; Acinetobacter baumannii, A. baumannii 163169, IDM) | MIC ([3]; Acinetobacter baumannii, A. baumannii GM236, IDM)
0.06 µg/mL: MIC ([1]; read-out: Minimum inhibitory concentration (MIC), K. pneummoniae CDC-153 (NDM, OXA-232), IDM) | MIC ([3]; Acinetobacter baumannii, A. baumannii 157074, IDM) | MIC ([3]; Acinetobacter baumannii, A. baumannii CDC-0101, IDM)
128 µg/mL: MIC ([1]; read-out: Minimum inhibitory concentration (MIC), K. pneummoniae CDC-41 (NDM), MHBII)
60%: % of strains inhibited ([4]; cefiderocol 2 μg/mL)
2 µg/mL: MIC ([1]; read-out: Minimum inhibitory concentration (MIC), K. pneummoniae CDC-34 (IMP), MHBII) | MIC ([1]; read-out: Minimum inhibitory concentration (MIC), K. pneummoniae CDC-40 (VIM), MHBII) | MIC ([1]; read-out: Minimum inhibitory concentration (MIC), K. pneumoniae 847375 (SHV-12, KPC-2), IDM) | MIC ([1]; read-out: Minimum inhibitory concentration (MIC), K. pneumoniae OMAN 13 (NDM-1), IDM) | MIC ([2]; read-out: Minimum inhibitory concentration (MIC), E. cloacae Entb239 (p99 AmpC, KPC-3, CTXM-15, GES-1, IMI-1), IDM) | MIC ([3]; Acinetobacter baumannii, A. baumannii GM239, IDM)
90%: % of strains inhibited ([4]; cefiderocol 8 μg/mL) | % of strains inhibited ([4]; cefiderocol 16 μg/mL)

From patent publication US20220054513A1, “COMBINATION COMPOSITIONS COMPRISING A BETA-LACTAMASE INHIBITOR” (VenatoRx Pharmaceuticals, Inc., priority 2018, published 2022)
